Experimental data from PMC9828337 (Angewandte Chemie (International Ed. in English), 2022).

Tested on: CurKC-CurALP and CurKCkinase-CurKClyase
Assay: MST binding with or without an ATP analog
Design: species or system Thermomonospora curvata DSM43183
Conditions: three replicates

Structure (SMILES): Nc1ncnc2c1ncn2[C@@H]1O[C@H](COP(=O)(O)OP(=O)(O)OP(=O)(O)O)[C@@H](O)[C@H]1O [ATP]
- effect on leader binding and lyase–kinase association: little impact on the leader binding and lyase–kinase association
